# Source: patent US20250205231A1, “Tear Film Stability” (priority 2012, published 2025)
# “And” between values parts separate entries of the source, which are not always exact repeats. Identical values can stand only once. “Also recorded” adds a separate entry of the source.
# Tests used:
# [1] = test system: patients with dry eye and blepharitis; test: Concomitant use of topical lubricants, topical statin pilot study; type: in vivo, human
# Text: (§1) 10 patients were enrolled and completed the study.
# (§2) • 1) Subjective • Total symptoms score • Face score (Goto et al 2002) • 2) Objective • a) Tear film break-up time (BUT) • b) Corneal fluorescein staining • b) Blepharitis score • c) Bulbar conjunctival injection • d) Concomitant use of topical therapy
# Prior to the study, 6 patients were using topical lubricants an average of 6 times a day (range 2 to 8. SD 2.3); 4 of these patients were using preservative-free lubricants. At study completion, 2 patients had ceased their topical lubrication, and 3 of the remaining 4 patients had reduced the frequency of lubricant use to an average of 4 times a day (range 3 to […]). […] One patient had had punctal occlusion in the study eye. 4 patients were performing lid massage with hot compresses and 4 were using a cotton bud for lid hygiene, 1 with bicarbonate of soda solution and 2 with shampoo. Patients were asked not to change these regimes during the study period.
# [2] = test system: patients with dry eye and blepharitis; test: Safety evaluation: cataract and adverse reactions; type: in vivo, human
# Text: as §1
# [3] = test system: patients with dry eye and blepharitis; test: Safety evaluation: best-corrected visual acuity (BCVA); details: baseline to study completion
# [4] = test system: patients with dry eye and blepharitis; test: Blepharitis score, topical statin pilot study; type: in vivo, human; set-up: Blepharitis score: scale not given here
# Text: (§3) Aim: To investigate topical statin as a novel therapy for dry eyes associated with blepharitis. Methods: 10 patients with symptoms and signs of dry eye and blepharitis were enrolled in a prospective pilot study of topical statin therapy over 1 month. The primary outcome measure was corneal fluorescein staining. Results: An Improvement in corneal fluorescein staining by a 3 points from baseline to completion of the trial at week four was found in 6 of 10 patients in the study eye. Subjective dry eye symptoms improved (p=0.005). […] Conclusions: Topical statins are a suitable therapy for patients with dry eye and blepharitis. They can be easily manufactured and could be widely available.
# as §1
# (§4) Patients with • 1) Any symptoms of dry eyes and blepharitis • 2) Any signs of dry eyes: • BUT (tear break up time)≤5 sec, or • Punctate epithelial erosions in at least one eye • 3) Any signs of blepharitis: • Anterior lid margin—grease, skin scales, collarets, frank ulcers, loss of lashes and inflammation • Posterior lid margin—cheesy secretions, blocked meibomian glands >⅓, telangiectasia, meibomitis, notched lid margin and chalaza • 4) Male or female patients greater or equal to 18 years of age • 5) Patients able to give written informed consent and comply with study protocol […]
# (§5) Patients were evaluated at weeks 1, 2, 3 and 4. […]
# [5] = test system: patients with dry eye and blepharitis; test: Face score (facial analogue scale, Goto et al 2002), topical statin pilot study; type: in vivo, human; set-up: Facescale score: scale not given here
# Text: as §3, §1, §4, §5
# [6] = test system: patients with dry eye and blepharitis; test: Corneal fluorescein staining (National Eye Institute scoring 0-15), topical statin pilot study; type: in vivo, human
# Text: as §3, §1
# (§6) Patients with • 1) Any symptoms of dry eyes and blepharitis • 2) Any signs of dry eyes: • BUT (tear break up time)≤5 sec, or • Punctate epithelial erosions in at least one eye • 3) Any signs of blepharitis: • Anterior lid margin—grease, skin scales, collarets, frank ulcers, loss of lashes and inflammation • Posterior lid margin—cheesy secretions, blocked meibomian glands >⅓, telangiectasia, meibomitis, notched lid margin and chalaza • 4) Male or female patients greater or equal to 18 years of age • 5) Patients able to give written informed consent and comply with study protocol
# as §2
# (§7) Patients were evaluated at weeks 1, 2, 3 and 4. However, the primary endpoint was at trial completion (4 weeks). A p value <0.050 was considered statistically significant.
# [7] = test system: patients with dry eye and blepharitis; test: Safety evaluation: intraocular pressure (IOP); details: baseline to study completion
# [8] = test system: patients with dry eye and blepharitis; test: Subjective dry eye symptom scores (global and individual), topical statin pilot study; type: in vivo, human; set-up: Global Symptom score: scale not given here
# Text: as §3, §1, §6, §2, §7
# [9] = test system: patients with dry eye and blepharitis; test: Schirmer I test, topical statin pilot study; type: in vivo, human; details: baseline to week four
# Text: as §3, §1, §6, §5
# [10] = test system: patients with dry eye and blepharitis; test: Tear film break-up time (BUT), topical statin pilot study; type: in vivo, human; details: 1 month topical therapy
# Text: as §3, §1, §4, §5
# [11] = 1 month, study eye, individual patients 1-10, listed as topical statin
smiles,measurement,setting,value
CC(C)c1c(C(=O)Nc2ccccc2)c(-c2ccccc2)c(-c2ccc(F)cc2)n1CC[C@@H](O)C[C@@H](O)CC(=O)O [Atorvastatin],Patients who had ceased their topical lubrication at study completion,[1]; of 6 patients using topical lubricants prior to the study,2 patients
same,Patients who had reduced the frequency of lubricant use,"[1]; of the remaining 4 patients, at study completion",3 patients
same,Average frequency of lubricant use at study completion,"[1]; range 3 to 6, SD 0.6, prior to the study average 6 times a day",4 times a day
same,Adverse events / side-effects,"[2]; 1 month topical therapy, both eyes, 10 patients, listed as topical statin",no serious or irreversible side-effects; also recorded: No adverse events were reported
same,Cataract development,[2]; baseline to study completion,no patient developed cataract
same,"Change in BCVA, fellow eye (in words)",[3],no significant change
same,"Change in BCVA, study eye (in words)",[3],no significant change
same,Effect on blepharitis score (in words),[4]; 1 month topical therapy,significantly improved
same,Blepharitis score,[4]; [11],7 (2×) and 5 (3×) and 4 (3×) and 2 (2×)
same,Facescale score,"[5]; 1 month, facial analogue scale, individual patients 1-10, listed as topical statin",4 (3×) and 1 and 3 (2×) and 5 (3×) and 2
same,Change in face score (in words),[5]; enrolment to week four,significant improvement
same,Corneal fluorescein score,"[6]; 1 month, NEI scale 0-15, individual patients 1-10, 50 microM, 8 times a day, listed as topical statin",1 (2×) and 0 (4×) and 2 (3×) and 4
same,Patients with improvement in corneal fluorescein staining by three or more points,"[6]; of 10 patients, baseline to week four",6 patients
same,Patients with corneal fluorescein staining score improved by more than one point,[6]; of the 10 patients,9 patients
same,"Change in IOP, study eye (in words)",[7],no change
same,Effect on subjective dry eye symptoms (in words),[8]; 1 month topical therapy,improved
same,Global Symptom score,[8]; [11],5 and 0 (5×) and 3 and 4 and 1 and 2
same,Change in blurred vision score (in words),[8]; enrolment to week four,no significant change
same,Change in discomfort score (in words),[8]; enrolment to week four,significant improvement
same,Change in dryness score (in words),[8]; enrolment to week four,significant improvement
same,Change in foreign body sensation score (in words),[8]; enrolment to week four,significant improvement
same,Change in photophobia score (in words),[8]; enrolment to week four,no significant change
same,Change in redness score (in words),[8]; enrolment to week four,significant improvement
same,Change in watering score (in words),[8]; enrolment to week four,significant improvement
same,Change in Schirmer I test result (in words),[9],no significant change
same,Effect on tear film break-up time (in words),[10],significantly improved
